Source: patent US20090197269A1, “Translocation and mutant CSF1R Kinase in human leukemia” (CELL SIGNALING TECHNOLOGY, INC., priority 2006, published 2009)

Assays:
STAT5 and ERK = test: Western blot of downstream target phosphorylation in MKPL-1 cells; type: cell-based, human; conditions: Imatinib
CMK = test: MTT cell proliferation assay, control cells; type: cell-based, human; conditions: control cells (CMK negative control), 48 hour MTT

Compound: Cc1ccc(NC(=O)c2ccc(CN3CCN(C)CC3)cc2)cc1Nc1nccc(-c2cccnc2)n1 [Imatinib]
- phosphorylation of downstream target STAT5 and ERK (STAT5 and ERK): inhibited as well
- inhibition of cell growth (CMK): the control cells are not
